# Key:
# [1] = Reversal of multidrug resistance in human MCF7/DX cells assessed as potentiation doxorubicin-induced cytotoxicity by measuring reduction in doxorubicin IC50 level at 5 uM incubated for 48 hrs by MTT assay relative to untreated control; format: functional
# [2] = Reversal of multidrug resistance in human MCF7/DX cells assessed as potentiation doxorubicin-induced cytotoxicity by measuring reduction in doxorubicin IC50 level at 30 uM incubated for 48 hrs by MTT assay relative to untreated control; format: functional
# [3] = Cytotoxicity against human MCF7/DX cells incubated for 48 hrs by MTT assay; format: cell-based
SMILES,fold change (FC) [1],fold change (FC) [2],IC50 [3] [µM]
COc1ccc(CCN(C)CCCC(C#N)(c2ccc(OC)c(OC)c2)C(C)C)cc1OC (centres undefined),5.4,,
CC(C)C[C@H]1C[C@]2(CC[C@]3(C(C)C)C[C@H]23)OC2=C1C(=O)C(C)(C)C(=O)C2(C)C,,5.6,> 30
C=C[C@]1(CCC=C(C)C)C[C@@H](CC(C)C)C2=C(O1)C(C)(C)C(=O)C(C)(C)C2=O,,7.4,> 30
C=C[C@@]1(CCC=C(C)C)C[C@@H](CC(C)C)C2=C(O1)C(C)(C)C(=O)C(C)(C)C2=O,,4.7,> 30
C=C[C@]1(CCC=C(C)C)C[C@H](CC(C)C)C2=C(O1)C(C)(C)C(=O)C(C)(C)C2=O,,16.5,> 30
CC(C)C[C@@H]1C[C@@]2(CC[C@]3(C(C)C)C[C@H]23)OC2=C1C(=O)C(C)(C)C(=O)C2(C)C,,4.5,> 30
Cc1ccc2c(c1)[C@H](C(C)C)CC[C@]21C[C@H](CC(C)C)C2=C(O1)C(C)(C)C(=O)C(C)(C)C2=O,,0.9,> 30
C=C[C@@]1(CCC=C(C)C)C[C@H](CC(C)C)C2=C(O1)C(C)(C)C(=O)C(C)(C)C2=O,,10.1,> 30
CC(C)C[C@H]1C[C@@]2(CC[C@]3(C(C)C)C[C@H]23)OC2=C1C(=O)C(C)(C)C(=O)C2(C)C,,1,> 30
CC(C)C[C@@H]1C[C@]2(CC[C@]3(C(C)C)C[C@H]23)OC2=C1C(=O)C(C)(C)C(=O)C2(C)C,,1.2,> 30
